Results as given in patent publication US5175100A, “Stereospecific resolution by hydrolysis of esters of 2-arylpropionic acids by liver enzymes” (Rhone-Poulenc, Inc., priority 1991, dated 1992).

What was measured:
Type in all cases: biochemical
[1] = test system: Liver acetone powder from Calf; experiment: Hydrolysis of ketoprofen esters by calf liver acetone powder; conditions: Calf powder, 0.2 millimole ester, procedure of Example 1
Procedure: (§1) A solution of 50 mg of ketoprofen methyl ester in 0.2 ml of ethanol was added to 10 mg of each of liver acetone powder from various animal sources (described in Table 1) in 5 ml of 0.1M potassium phosphate buffer (pH 7.0) After shaking at room temperature for 24 hours, the reaction mixtures were acidified to pH 2.0 with 6(N) HCl and extracted with 10 ml of ethyl acetate. A portion of the ethyl acetate extract was analyzed by HPLC on a Partisil 5 ODS-3 RAC column (9.4 mm×100 mm, Whatman) using a mixture of methanol and 10 mM ammonium dihydrogen phospate (9:1) and monitored by UV at 254 nm to determine the percentages of acid produced in the reaction.
(§2) To determine the percentage of R- and S-acid, a portion of the ethyl acetate extract was converted to the amide derivative of the acid produced with R(+)-1-phenylethylamine as follows. The ethyl acetate extract (5 ml) was dried over sodium sulfate, filtered and cooled to 0° C. To the cold solution was added 0.2 ml of N-methylmorpholine followed by 0.2 ml of isobutyl chloroformate. After gentle shaking at 0° C. for 10 minutes, 0.2 ml of R(+)-1-phenylethylamine was added and the shaking was continued at 0° C. for 5 minutes and at room temperature for another 5 minutes. The reaction mixture was washed successively with water (5 ml), 1(N) HCl (5 ml), and water (5 ml) to provide the amide derivative in ethyl acetate solution. The ethyl acetate solution of the amide derivative was then analyzed by HPLC on the same column and same solvent mixture but with a different composition, i.e., a ratio of 6:4, and monitored by UV to determine the percentages of R- acid and S-acids produced by hydrolysis. The enantiomeric excess (EE) is defined as the difference in percent between the percent R- acid and the percent S-acid, the higher enantiomer being reported in the parenthesis in Table I.
(§3) Several esters of ketoprofen (0.2 millimole) with various alkyl groups of varying chain length were hydrolyzed using liver acetone powders from bovine, calf and dog by the procedure described in Example 1. The reaction mixtures were analyzed by the same procedures as described in Example 1 and the results obtained are summarized in Table II.

[2] = test system: Liver acetone powder from Bovine; experiment: Hydrolysis of ketoprofen esters by bovine liver acetone powder; conditions: Bovine powder, 0.2 millimole ester, procedure of Example 1
Procedure: as §1, §2, §3

[3] = test system: Liver acetone powder from Dog; experiment: Hydrolysis of ketoprofen esters by dog liver acetone powder; conditions: Dog powder, 0.2 millimole ester, procedure of Example 1
Procedure: as §1, §2, §3

Structure (SMILES)	EE(%) of R-Acid [1] [%]	Percent of Acid R-Acid [1] [%]	Percent of Acid S-Acid [1] [%]	EE(%) of R-Acid [2] [%]	Percent of Acid R-Acid [2] [%]	Percent of Acid S-Acid [2] [%]	EE(%) of R-Acid [3] [%]	Percent of Acid R-Acid [3] [%]	Percent of Acid S-Acid [3] [%]
CCCCOC(=O)C(C)c1cccc(C(=O)c2ccccc2)c1 (stereo not drawn) [C-4]	38.2	65.6	34.4	33.4	66.7	33.3	68.8	84.4	15.6
CCCCCCOC(=O)C(C)c1cccc(C(=O)c2ccccc2)c1 (stereo not drawn) [C-6]	42.0	71.0	29.0	45.4	72.7	27.3	35.8	67.9	32.1
CCCCCCCCOC(=O)C(C)c1cccc(C(=O)c2ccccc2)c1 (stereo not drawn) [C-8]	24.2	62.1	37.9	55.8	77.9	22.1	41.4	70.7	29.3
